The record followed here is patent US8338565B2, “Macrocyclic compounds for inhibition of tumor necrosis factor alpha” (Ensemble Therapeutics Corporation, priority 2008, dated 2012).

Numbered stars: 1 amine (or outer) side, 2 acyl side, 3 side chain; on linkers, the order of the positions; unused ones are H or OH. Bridge positions count the residues as written; N and C are the ends. Square brackets hold non-standard residues; d marks the D form. Peptide text beside a SMILES is read from it. * marks the point of attachment. Phe(4-NO2) = N[C@@H](Cc1ccc([N+](=O)[O-])cc1)C(=O)O; Bip(2'-Me) = Cc1ccccc1-c1ccc(C[C@H](N)C(=O)O)cc1; Phe(3,4-(OMe)2) = COc1ccc(C[C@H](N)C(=O)O)cc1OC; Phe(3-Ph) = N[C@@H](Cc1cccc(-c2ccccc2)c1)C(=O)O; Phe(4-tBu) = CC(C)(C)c1ccc(C[C@H](N)C(=O)O)cc1; Bip = N[C@@H](Cc1ccc(-c2ccccc2)cc1)C(=O)O; Phe(3-OMe) = COc1cccc(C[C@H](N)C(=O)O)c1; Phe(4-CN) = N#Cc1ccc(C[C@H](N)C(=O)O)cc1; Phe(4-Cl) = N[C@@H](Cc1ccc(Cl)cc1)C(=O)O; Phe(4-NH2) = Nc1ccc(C[C@H](N)C(=O)O)cc1; Phe(4-Me) = Cc1ccc(C[C@H](N)C(=O)O)cc1; 1Nal = N[C@@H](Cc1cccc2ccccc12)C(=O)O; 2Nal = N[C@@H](Cc1ccc2ccccc2c1)C(=O)O; His(τ-Me) = Cn1cnc(C[C@H](N)C(=O)O)c1; Met(O2) = CS(=O)(=O)CC[C@H](N)C(=O)O; d(hPhe) = N[C@H](CCc1ccccc1)C(=O)O; mTyr = N[C@@H](Cc1cccc(O)c1)C(=O)O; Igl = N[C@H](C(=O)O)C1Cc2ccccc2C1; hPhe = N[C@@H](CCc1ccccc1)C(=O)O; 2Thi = N[C@@H](Cc1cccs1)C(=O)O; d2Thi = N[C@H](Cc1cccs1)C(=O)O; dPhg = N[C@@H](C(=O)O)c1ccccc1; Suc = O=C(CCC(=O)[*:2])[*:1]; Nicotinoyl = O=C(c1cccnc1)*; Nphe = O=C(O)CNCc1ccccc1; Bn = c1ccc(C*)cc1; tBu = CC(C)(C)*

The target in this assay is T1, TNFα / TNFα receptor (TNFα R1/Fc) (Homo sapiens, UniProt P01375).
T1 construct: purchased R&D Systems
T1 sequence (P01375 77-233 limits assumed, species assumed): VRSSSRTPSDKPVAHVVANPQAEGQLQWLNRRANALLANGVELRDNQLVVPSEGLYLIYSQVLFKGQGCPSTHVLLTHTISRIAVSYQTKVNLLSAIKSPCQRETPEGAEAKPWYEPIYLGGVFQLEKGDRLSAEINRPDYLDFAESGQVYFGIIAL
Description: Inhibition of binding of TNFα to the TNFα receptor (plate ELISA competition). The note with it: Table 2; read-out: Activity (IC50, inhibition of TNFα binding to TNFα R1/Fc). On the procedure:
The compounds listed in Table 2 below were assayed for ability to inhibit binding of TNFα to the TNFα receptor (TNFα R1/Fc). The assays were performed as described in the following procedure: TNFα (R&D Systems) was coated on high binding plate wells (Corning 96-well) at a single uniform concentration of 15 nM, 100 μL/well in PBS. The coating proceeded for 30 minutes at 37° C. then 10 minutes at 4° C. The coated plate was washed with PBST, then 250 μL/well of blocking solution (PBST 0.1% BSA, bovine serum albumin) was added and incubation proceeded for 30-45 minutes at room temperature with agitation. The solution phase competition proceeded separately with the dilutions of test compound in PBST (phosphate buffered saline with Tween 20), 2% DMSO in a polypropylene plate (Corning 96-well storage plate) with a single concentration, 8.33 nM of the high affinity receptor for TNFα (R&D Systems). This solution phase incubation proceeded for 30 minutes at room temperature with agitation and was then added to the washed TNFα coated assay plate, 100 μL/well, and was incubated for a further 30 minutes at room temperature with agitation. The assay plate was washed and 100 μL goat anti-human IgG (Fc) HRP labeled antibody in PBST, 13 pM, (KPL Cat#04-10-2) was added to each well. This incubation proceeded for 25-30 minutes at room temperature with agitation. Following this incubation step, the plate was washed and a 100 μL TMB solution (SUREBLUE™ TMB Peroxidase substrate, KPL) was added per well and allowed to stand approximately 3-5 minutes for development. The TMB reaction was stopped with the addition of 0.5N HCl and then the plate was read for absorbance at 450 nm.
On the technique in general: An ELISA detects its analyte on a solid surface through an enzyme-linked reagent.
Turning to `CC(C)(C)Oc1ccc(C[C@@H]2NC(=O)[C@@H](Cc3cccs3)NC(=O)CCC(=O)Nc3ccc(cc3)C[C@@H](C(=O)O)NC(=O)[C@@H](Cc3ccccc3)NC2=O)cc1` [Compound 86] ([d2Thi]Y(tBu)[dF][Phe(4-NH2)]-OH; linker N-4 via Suc), the IC50 was > 100 µM.

For `O=C1CCC(=O)N[C@H](Cc2cccs2)C(=O)N[C@@H](Cc2ccc(O)cc2)C(=O)N[C@H](Cc2ccccc2)C(=O)N[C@H](C(=O)O)Cc2ccc(cc2)N1` [Compound 87] ([d2Thi]Y[dF][Phe(4-NH2)]-OH; linker N-4 via Suc), the IC50 is > 100 µM. The value for `COc1cccc(C[C@@H]2NC(=O)[C@@H](Cc3cccs3)NC(=O)CCC(=O)Nc3ccc(cc3)C[C@@H](C(=O)O)NC(=O)[C@@H](Cc3ccccc3)NC2=O)c1` [Compound 88] ([d2Thi][Phe(3-OMe)][dF][Phe(4-NH2)]-OH; linker N-4 via Suc) was > 100 µM. Take `CC(C)(C)c1ccc(C[C@@H]2NC(=O)[C@@H](Cc3cccs3)NC(=O)CCC(=O)Nc3ccc(cc3)C[C@@H](C(=O)O)NC(=O)[C@@H](Cc3ccccc3)NC2=O)cc1` [Compound 90] ([d2Thi][Phe(4-tBu)][dF][Phe(4-NH2)]-OH; linker N-4 via Suc): the IC50 was > 100 µM.

`O=C1CCC(=O)N[C@H](Cc2cccs2)C(=O)N[C@@H](CCc2ccccc2)C(=O)N[C@H](Cc2ccccc2)C(=O)N[C@H](C(=O)O)Cc2ccc(cc2)N1` [Compound 91] ([d2Thi][hPhe][dF][Phe(4-NH2)]-OH; linker N-4 via Suc): the IC50 is > 100 µM. Turning to `O=C1CCC(=O)N[C@H](Cc2cccs2)C(=O)N[C@@H](Cc2ccc(OCc3ccccc3)cc2)C(=O)N[C@H](Cc2ccccc2)C(=O)N[C@H](C(=O)O)Cc2ccc(cc2)N1` [Compound 92] ([d2Thi]Y(Bn)[dF][Phe(4-NH2)]-OH; linker N-4 via Suc), the IC50 is 30 to 100 µM. To `COc1ccc(C[C@@H]2NC(=O)[C@@H](Cc3cccs3)NC(=O)CCC(=O)Nc3ccc(cc3)C[C@@H](C(=O)O)NC(=O)[C@@H](Cc3ccccc3)NC2=O)cc1OC` [Compound 93] ([d2Thi][Phe(3,4-(OMe)2)][dF][Phe(4-NH2)]-OH; linker N-4 via Suc) belongs > 100 µM; to `N#Cc1ccc(C[C@@H]2NC(=O)[C@@H](Cc3cccs3)NC(=O)CCC(=O)Nc3ccc(cc3)C[C@@H](C(=O)O)NC(=O)[C@@H](Cc3ccccc3)NC2=O)cc1` [Compound 94] ([d2Thi][Phe(4-CN)][dF][Phe(4-NH2)]-OH; linker N-4 via Suc), > 100 µM. With `Cc1ccccc1-c1ccc(C[C@@H]2NC(=O)[C@@H](Cc3cccs3)NC(=O)CCC(=O)Nc3ccc(cc3)C[C@@H](C(=O)O)NC(=O)[C@@H](Cc3ccccc3)NC2=O)cc1` [Compound 95] ([d2Thi][Bip(2'-Me)][dF][Phe(4-NH2)]-OH; linker N-4 via Suc), the IC50 was in the range of 30 to 100 µM.

For the compound `O=C1CCC(=O)N[C@H](Cc2cccs2)C(=O)N[C@@H](CCCCNC(=O)c2cccnc2)C(=O)N[C@H](Cc2ccccc2)C(=O)N[C@H](C(=O)O)Cc2ccc(cc2)N1` [Compound 96] ([d2Thi]K(Nicotinoyl)[dF][Phe(4-NH2)]-OH; linker N-4 via Suc), the IC50 is > 100 µM. Regarding `O=C1CCC(=O)N[C@H](Cc2cccs2)C(=O)N[C@@H](Cc2cccs2)C(=O)N[C@H](Cc2ccccc2)C(=O)N[C@H](C(=O)O)Cc2ccc(cc2)N1` [Compound 97] ([d2Thi][2Thi][dF][Phe(4-NH2)]-OH; linker N-4 via Suc), the IC50 is > 100 µM. The value for `CS(=O)(=O)CC[C@@H]1NC(=O)[C@@H](Cc2cccs2)NC(=O)CCC(=O)Nc2ccc(cc2)C[C@@H](C(=O)O)NC(=O)[C@@H](Cc2ccccc2)NC1=O` [Compound 98] ([d2Thi][Met(O2)][dF][Phe(4-NH2)]-OH; linker N-4 via Suc) was > 100 µM; that for `O=C1CCC(=O)N[C@H](Cc2cccs2)C(=O)N[C@@H](C2Cc3ccccc3C2)C(=O)N[C@H](Cc2ccccc2)C(=O)N[C@H](C(=O)O)Cc2ccc(cc2)N1` [Compound 99] ([d2Thi][Igl][dF][Phe(4-NH2)]-OH; linker N-4 via Suc) was > 100 µM. To `Cn1cnc(C[C@@H]2NC(=O)[C@@H](Cc3cccs3)NC(=O)CCC(=O)Nc3ccc(cc3)C[C@@H](C(=O)O)NC(=O)[C@@H](Cc3ccccc3)NC2=O)c1` [Compound 100] ([d2Thi][His(τ-Me)][dF][Phe(4-NH2)]-OH; linker N-4 via Suc) belongs > 100 µM; to `O=C1CCC(=O)N[C@H](Cc2cccs2)C(=O)N(Cc2ccccc2)CC(=O)N[C@H](Cc2ccccc2)C(=O)N[C@H](C(=O)O)Cc2ccc(cc2)N1` [Compound 101] ([d2Thi][Nphe][dF][Phe(4-NH2)]-OH; linker N-4 via Suc), > 100 µM; to `O=C1CCC(=O)N[C@H](Cc2cccs2)C(=O)N[C@@H](Cc2cccc(O)c2)C(=O)N[C@H](Cc2ccccc2)C(=O)N[C@H](C(=O)O)Cc2ccc(cc2)N1` [Compound 102] ([d2Thi][mTyr][dF][Phe(4-NH2)]-OH; linker N-4 via Suc), > 100 µM. The value for `Cc1ccc(C[C@@H]2NC(=O)[C@@H](Cc3cccs3)NC(=O)CCC(=O)Nc3ccc(cc3)C[C@@H](C(=O)O)NC(=O)[C@@H](Cc3ccccc3)NC2=O)cc1` [Compound 103] ([d2Thi][Phe(4-Me)][dF][Phe(4-NH2)]-OH; linker N-4 via Suc) was > 100 µM; that for `COc1ccc(C[C@@H]2NC(=O)[C@@H](Cc3cccs3)NC(=O)CCC(=O)Nc3ccc(cc3)C[C@@H](C(=O)O)NC(=O)[C@@H](Cc3ccccc3)NC2=O)cc1` [Compound 104] ([d2Thi]Y(Me)[dF][Phe(4-NH2)]-OH; linker N-4 via Suc) was > 100 µM; that for `O=C1CCC(=O)N[C@H](Cc2cccs2)C(=O)N[C@@H](Cc2ccc(Cl)cc2)C(=O)N[C@H](Cc2ccccc2)C(=O)N[C@H](C(=O)O)Cc2ccc(cc2)N1` [Compound 105] ([d2Thi][Phe(4-Cl)][dF][Phe(4-NH2)]-OH; linker N-4 via Suc) was 30 to 100 µM. In the case of `O=C1CCC(=O)N[C@H](Cc2cccs2)C(=O)N[C@@H](Cc2ccc([N+](=O)[O-])cc2)C(=O)N[C@H](Cc2ccccc2)C(=O)N[C@H](C(=O)O)Cc2ccc(cc2)N1` [Compound 106] ([d2Thi][Phe(4-NO2)][dF][Phe(4-NH2)]-OH; linker N-4 via Suc), the IC50 was > 100 µM. The value for `O=C1CCC(=O)N[C@H](Cc2cccs2)C(=O)N[C@H](c2ccc(Br)cc2)CC(=O)N[C@H](Cc2ccccc2)C(=O)N[C@H](C(=O)O)Cc2ccc(cc2)N1` [Compound 107] was > 100 µM; that for `O=C1CCC(=O)N[C@H](CCc2ccccc2)C(=O)N[C@@H](Cc2cccc3ccccc23)C(=O)N[C@H](Cc2ccccc2)C(=O)N[C@H](C(=O)O)Cc2ccc(cc2)N1` [Compound 108] ([d(hPhe)][1Nal][dF][Phe(4-NH2)]-OH; linker N-4 via Suc) was 10 to 30 µM. The value for `O=C1CCC(=O)N[C@H](CCc2ccccc2)C(=O)N[C@@H](Cc2ccc3ccccc3c2)C(=O)N[C@H](Cc2ccccc2)C(=O)N[C@H](C(=O)O)Cc2ccc(cc2)N1` [Compound 109] ([d(hPhe)][2Nal][dF][Phe(4-NH2)]-OH; linker N-4 via Suc) was 10 to 30 µM; that for `COc1cccc(-c2ccc(C[C@@H]3NC(=O)[C@@H](CCc4ccccc4)NC(=O)CCC(=O)Nc4ccc(cc4)C[C@@H](C(=O)O)NC(=O)[C@@H](Cc4ccccc4)NC3=O)cc2)c1` [Compound 110] was 10 to 30 µM. Regarding `O=C1CCC(=O)N[C@H](CCc2ccccc2)C(=O)N[C@@H](Cc2cccc(-c3ccccc3)c2)C(=O)N[C@H](Cc2ccccc2)C(=O)N[C@H](C(=O)O)Cc2ccc(cc2)N1` [Compound 113] ([d(hPhe)][Phe(3-Ph)][dF][Phe(4-NH2)]-OH; linker N-4 via Suc), the IC50 lay in the range of 10 to 30 µM.

Take `O=C1CCC(=O)N[C@H](CCc2ccccc2)C(=O)N[C@@H](Cc2ccc(-c3ncccn3)cc2)C(=O)N[C@H](Cc2ccccc2)C(=O)N[C@H](C(=O)O)Cc2ccc(cc2)N1` [Compound 114]: the IC50 was > 100 µM.

For `O=C1CCC(=O)N[C@H](CCc2ccccc2)C(=O)N[C@@H](Cc2ccc(-n3cccn3)cc2)C(=O)N[C@H](Cc2ccccc2)C(=O)N[C@H](C(=O)O)Cc2ccc(cc2)N1` [Compound 115], the IC50 was > 100 µM. To `O=C1CCC(=O)NN(Cc2ccccc2)C(=O)N[C@@H](Cc2ccc(-c3ccccc3)cc2)C(=O)N[C@H](Cc2ccccc2)C(=O)N[C@H](C(=O)O)Cc2ccc(cc2)N1` [Compound 119] belongs 30 to 100 µM; to `O=C1CCC(=O)N[C@H](c2ccccc2)C(=O)N[C@@H](Cc2ccc(-c3ccccc3)cc2)C(=O)N[C@H](Cc2ccccc2)C(=O)N[C@H](C(=O)O)Cc2ccc(cc2)N1` [Compound 120] ([dPhg][Bip][dF][Phe(4-NH2)]-OH; linker N-4 via Suc), > 100 µM. As for `O=C1CCC(=O)N[C@H](Cc2ccc(O)cc2)C(=O)N[C@@H](Cc2ccc(-c3ccccc3)cc2)C(=O)N[C@H](Cc2ccccc2)C(=O)N[C@H](C(=O)O)Cc2ccc(cc2)N1` [Compound 121] ([dY][Bip][dF][Phe(4-NH2)]-OH; linker N-4 via Suc), the IC50 was > 100 µM.
